The assay concerns the target T1, Tyrosine-protein phosphatase non-receptor type 1 [1-321] (Homo sapiens, UniProt P18031).
T1 construct: 1-321
T1 sequence (P18031 whole entry): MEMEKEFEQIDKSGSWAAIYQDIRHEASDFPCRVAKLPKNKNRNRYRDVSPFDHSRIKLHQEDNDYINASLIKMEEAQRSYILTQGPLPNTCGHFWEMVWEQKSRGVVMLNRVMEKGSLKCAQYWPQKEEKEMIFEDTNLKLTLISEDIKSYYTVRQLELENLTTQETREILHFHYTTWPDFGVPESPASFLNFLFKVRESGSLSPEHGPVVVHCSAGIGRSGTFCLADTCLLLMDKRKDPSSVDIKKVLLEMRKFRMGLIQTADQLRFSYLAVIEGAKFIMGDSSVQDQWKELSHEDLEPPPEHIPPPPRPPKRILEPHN
The assay is described as follows: PTP1B Activity Assay. The following applies: pH 7.5; 37 °C. The procedure:
PTP1B was diluted before the experiment to 1.2 μg/mL in Tris buffer, pH7.6 (10 mM Tris, 1.0 mM EDTA, 3.0 mM DTT, 0.01% w/v NaN3). The tested compounds were dissolved in DMSO. The enzyme reaction buffer was Tris buffer, pH 7.5 (50 mM Tris, 0.15 M NaCl, 3 mM DTT). A typical 10 μL of tested compounds was added to the enzyme solution (50 μL), and the resulting mixture was preincubated at 37°C for 30 min. The enzyme reaction was initiated by the addition of 8 mM p-NPP (40 μL).

One may read the IC50 as the concentration that inhibits the measured activity by half.

In the case of `O=C(O)/C=C/c1ccc(O)cc1` [p-Coumaric Acid], the IC50 is 168 µM.

Take `O=C(O)/C=C/c1ccccc1O` [(2E)-3-(2-hydroxyphenyl)prop-2-enoic acid]: the IC50 is 138 µM.

For the origin of these results see BindingDB's records for doi:10.3109/14756366.2012.715286 (Chulalongkorn University, 2013).
